Six compounds from patent US10947289B2, “Glyco-modified atrial natriuretic peptide” (priority 2013, dated 2021) can be followed below.

Data set [1] can be described thus: Detection of test substance in rat plasma by LC-MS/MS (Test Example 3). To be noted: rat plasma, 100 nmol/kg i.v., LC-MS/MS; time at which the test substance was finally detected. The data set is classed as in vivo. How it is done:
Before the administration and 15, 30, 60, 90, 120, 180, and 240 minutes after the administration, blood was sampled (200 μL/sampling) over time from the jugular vein. The blood samples were immediately left on ice.
The collected blood samples were centrifuged at 5000 rpm at 4° C. for 5 minutes by use of a centrifuge (Sigma 4K15, rotor: Nr12130-H). The separated plasma samples were divided into two types (samples for PK measurement and for cGMP measurement) and stored at −80° C. until measurement.
An internal standard (20 μL (500 nM) of a stable isotope of hANP) and an acetic acid mixed solvent (AcOH/distilled water/DMSO=5/3/2, v/v/v) were added to 50 μL of each rat plasma sample prepared in (1) and then mixed therewith. The mixture was transferred to Amicon Ultra-0.5 50K (Millipore Corp., MA) and centrifuged at 14000 rpm at 15° C. for 30 minutes. The obtained filtrate was transferred to Amicon Ultra-0.5 3K (Millipore Corp., MA) and centrifuged again under the aforementioned conditions. The solution remaining on the filter was recovered and transferred to a 96-well deep well plate. The content of the test substance was measured by LC-MS/MS (LC: Shimadzu LC-10ADVP (Shimadzu Corp.), MS/MS: API 4000 QTrap (AB SCIEX)) to calculate the concentration in plasma. The time at which the test substance was finally detected is shown in the rightmost column of Table 2.

The next data set addresses T1, human GC-A (Homo sapiens, UniProt P16066).
T1 construct: expressed in transfected cells; host or cells: CHO cells
T1 sequence (P16066 33-1061): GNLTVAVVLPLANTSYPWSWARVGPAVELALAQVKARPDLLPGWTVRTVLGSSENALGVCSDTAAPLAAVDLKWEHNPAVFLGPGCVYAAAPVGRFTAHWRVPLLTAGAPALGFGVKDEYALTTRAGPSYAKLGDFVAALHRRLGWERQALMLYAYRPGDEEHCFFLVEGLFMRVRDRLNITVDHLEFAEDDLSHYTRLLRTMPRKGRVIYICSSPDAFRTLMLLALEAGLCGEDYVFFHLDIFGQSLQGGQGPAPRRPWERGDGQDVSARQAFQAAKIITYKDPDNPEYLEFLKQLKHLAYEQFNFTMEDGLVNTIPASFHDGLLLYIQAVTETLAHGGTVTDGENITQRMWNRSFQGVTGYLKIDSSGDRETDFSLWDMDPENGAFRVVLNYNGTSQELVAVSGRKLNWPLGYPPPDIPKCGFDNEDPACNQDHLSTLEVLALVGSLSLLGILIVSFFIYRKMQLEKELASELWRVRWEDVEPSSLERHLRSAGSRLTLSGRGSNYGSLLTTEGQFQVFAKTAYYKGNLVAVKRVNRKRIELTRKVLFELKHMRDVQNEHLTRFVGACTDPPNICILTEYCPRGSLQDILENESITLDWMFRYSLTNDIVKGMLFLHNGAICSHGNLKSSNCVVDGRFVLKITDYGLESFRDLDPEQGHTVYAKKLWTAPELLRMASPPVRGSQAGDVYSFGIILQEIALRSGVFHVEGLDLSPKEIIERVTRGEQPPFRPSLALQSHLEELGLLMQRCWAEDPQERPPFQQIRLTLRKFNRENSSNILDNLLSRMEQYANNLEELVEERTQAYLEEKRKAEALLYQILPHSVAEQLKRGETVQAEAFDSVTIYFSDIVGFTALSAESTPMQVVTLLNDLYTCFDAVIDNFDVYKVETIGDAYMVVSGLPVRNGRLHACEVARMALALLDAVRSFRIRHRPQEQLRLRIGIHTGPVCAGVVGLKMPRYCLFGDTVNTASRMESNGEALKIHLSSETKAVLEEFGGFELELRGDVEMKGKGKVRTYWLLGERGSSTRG
The data set is described as follows: cGMP elevating activity in CHO/human GC-A cells (Test Example 1). The data set is classed as cell-based. To be noted: for Emax: maximum T/C in range 0.01-100 nM, solvent only = 0, 1 nM ANP = 1. In outline:
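cGMP in lysates was read by HTRF after a 15 min peptide exposure of GC-A-expressing CHO cells in a CO2 incubator, following 10 min room-temperature preincubation with 1.6 mM IBMX in KRB. T/C values were normalised between solvent wells (0) and 1 nM ANP wells (1).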

[2] abbreviates: CHO/human GC-A cells, concentration at T/C=0.5, 15 minutes incubation, read-out: EC50.

What is called EC50 is the concentration at which the effect is half-maximal.

Where two headings read alike, the source gives them in different places.

As for `CC[C@H](C)[C@@H]1NC(=O)[C@H](CCCNC(=N)N)NC(=O)[C@H](CC(=O)O)NC(=O)[C@H](CCSC)NC(=O)[C@H](CCCNC(=N)N)NC(=O)CNC(=O)CNC(=O)[C@H](Cc2ccccc2)NC(=O)[C@@H](NC(=O)[C@H](CO)NC(=O)[C@H](CO)NC(=O)[C@H](CCCNC(=N)N)NC(=O)[C@H](CCCNC(=N)N)NC(=O)[C@H](CC(C)C)NC(=O)[C@H](CO)NC(=O)CO[C@@H]2O[C@H](CO)[C@@H](O[C@@H]3O[C@H](CO)[C@@H](O[C@@H]4O[C@H](CO[C@H]5O[C@H](CO)[C@@H](O)[C@H](O)[C@@H]5O[C@@H]5O[C@H](CO)[C@@H](O[C@@H]6O[C@H](CO[C@]7(C(=O)O)C[C@H](O)[C@@H](NC(C)=O)[C@H]([C@H](O)[C@H](O)CO)O7)[C@H](O)[C@H](O)[C@H]6O)[C@H](O)[C@H]5NC(C)=O)[C@@H](O)[C@H](O[C@H]5O[C@H](CO)[C@@H](O)[C@H](O)[C@@H]5O[C@@H]5O[C@H](CO)[C@@H](O[C@@H]6O[C@H](CO[C@]7(C(=O)O)C[C@H](O)[C@@H](NC(C)=O)[C@H]([C@H](O)[C@H](O)CO)O7)[C@H](O)[C@H](O)[C@H]6O)[C@H](O)[C@H]5NC(C)=O)[C@@H]4O)[C@H](O)[C@H]3NC(C)=O)[C@H](O)[C@H]2NC(C)=O)CSSC[C@@H](C(=O)N[C@@H](CC(N)=O)C(=O)N[C@@H](CO)C(=O)N[C@@H](Cc2ccccc2)C(=O)N[C@@H](CCCNC(=N)N)C(=O)N[C@@H](Cc2ccc(O)cc2)C(=O)O)NC(=O)CNC(=O)[C@H](CC(C)C)NC(=O)CNC(=O)[C@H](CO)NC(=O)[C@H](CCC(N)=O)NC(=O)[C@H](C)NC(=O)CNC1=O` [Compound 2-1, SG-hANP(1-28)], the “Maximum time of detection after administration” value in data set [1] amounted to 3 h.

Compound `CC[C@H](C)[C@@H]1NC(=O)[C@H](CCCNC(=N)N)NC(=O)[C@H](CC(=O)O)NC(=O)[C@H](CCSC)NC(=O)[C@H](CCCNC(=N)N)NC(=O)CNC(=O)CNC(=O)[C@H](Cc2ccccc2)NC(=O)[C@@H](NC(=O)[C@H](CO)NC(=O)[C@H](CO)NC(=O)[C@H](CCCNC(=N)N)NC(=O)[C@H](CCCNC(=N)N)NC(=O)[C@H](CC(C)C)NC(=O)[C@H](CO)NC(=O)CNC(=O)[C@H](CO)NC(=O)CNC(=O)[C@H](CO)NC(=O)CNC(=O)[C@H](CO)NC(=O)[C@H](CC(=O)N[C@@H]2O[C@H](CO)[C@@H](O[C@@H]3O[C@H](CO)[C@@H](O[C@@H]4O[C@H](CO[C@H]5O[C@H](CO)[C@@H](O)[C@H](O)[C@@H]5O[C@@H]5O[C@H](CO)[C@@H](O[C@@H]6O[C@H](CO[C@]7(C(=O)O)C[C@H](O)[C@@H](NC(C)=O)[C@H]([C@H](O)[C@H](O)CO)O7)[C@H](O)[C@H](O)[C@H]6O)[C@H](O)[C@H]5NC(C)=O)[C@@H](O)[C@H](O[C@H]5O[C@H](CO)[C@@H](O)[C@H](O)[C@@H]5O[C@@H]5O[C@H](CO)[C@@H](O[C@@H]6O[C@H](CO[C@]7(C(=O)O)C[C@H](O)[C@@H](NC(C)=O)[C@H]([C@H](O)[C@H](O)CO)O7)[C@H](O)[C@H](O)[C@H]6O)[C@H](O)[C@H]5NC(C)=O)[C@@H]4O)[C@H](O)[C@H]3NC(C)=O)[C@H](O)[C@H]2NC(C)=O)NC(=O)CO[C@@H]2O[C@H](CO)[C@@H](O[C@@H]3O[C@H](CO)[C@@H](O[C@@H]4O[C@H](CO[C@H]5O[C@H](CO)[C@@H](O)[C@H](O)[C@@H]5O[C@@H]5O[C@H](CO)[C@@H](O[C@@H]6O[C@H](CO[C@]7(C(=O)O)C[C@H](O)[C@@H](NC(C)=O)[C@H]([C@H](O)[C@H](O)CO)O7)[C@H](O)[C@H](O)[C@H]6O)[C@H](O)[C@H]5NC(C)=O)[C@@H](O)[C@H](O[C@H]5O[C@H](CO)[C@@H](O)[C@H](O)[C@@H]5O[C@@H]5O[C@H](CO)[C@@H](O[C@@H]6O[C@H](CO[C@]7(C(=O)O)C[C@H](O)[C@@H](NC(C)=O)[C@H]([C@H](O)[C@H](O)CO)O7)[C@H](O)[C@H](O)[C@H]6O)[C@H](O)[C@H]5NC(C)=O)[C@@H]4O)[C@H](O)[C@H]3NC(C)=O)[C@H](O)[C@H]2NC(C)=O)CSSC[C@@H](C(=O)N[C@@H](CC(N)=O)C(=O)N[C@@H](CO)C(=O)N[C@@H](Cc2ccccc2)C(=O)N[C@@H](CCCNC(=N)N)C(=O)N[C@@H](Cc2ccc(O)cc2)C(=O)O)NC(=O)CNC(=O)[C@H](CC(C)C)NC(=O)CNC(=O)[C@H](CO)NC(=O)[C@H](CCC(N)=O)NC(=O)[C@H](C)NC(=O)CNC1=O` [Compound 2-36, SG-(SG-)Asn-(Ser-Gly)3-hANP(1-28)] gave an EC50 at human GC-A of 0.39 nM.

`CC[C@H](C)[C@@H]1NC(=O)[C@H](CCCNC(=N)N)NC(=O)[C@H](CC(=O)O)NC(=O)[C@H](CCSC)NC(=O)[C@H](CCCNC(=N)N)NC(=O)CNC(=O)CNC(=O)[C@H](Cc2ccccc2)NC(=O)[C@@H](NC(=O)[C@H](CO)NC(=O)[C@H](CO)NC(=O)[C@H](CCCNC(=N)N)NC(=O)[C@H](CCCNC(=N)N)NC(=O)[C@H](CC(C)C)NC(=O)[C@H](CO)NC(=O)CNC(=O)CO[C@@H]2O[C@H](CO)[C@@H](O[C@@H]3O[C@H](CO)[C@@H](O[C@@H]4O[C@H](CO[C@H]5O[C@H](CO)[C@@H](O)[C@H](O)[C@@H]5O[C@@H]5O[C@H](CO)[C@@H](O[C@@H]6O[C@H](CO[C@]7(C(=O)O)C[C@H](O)[C@@H](NC(C)=O)[C@H]([C@H](O)[C@H](O)CO)O7)[C@H](O)[C@H](O)[C@H]6O)[C@H](O)[C@H]5NC(C)=O)[C@@H](O)[C@H](O[C@H]5O[C@H](CO)[C@@H](O)[C@H](O)[C@@H]5O[C@@H]5O[C@H](CO)[C@@H](O[C@@H]6O[C@H](CO[C@]7(C(=O)O)C[C@H](O)[C@@H](NC(C)=O)[C@H]([C@H](O)[C@H](O)CO)O7)[C@H](O)[C@H](O)[C@H]6O)[C@H](O)[C@H]5NC(C)=O)[C@@H]4O)[C@H](O)[C@H]3NC(C)=O)[C@H](O)[C@H]2O)CSSC[C@@H](C(=O)N[C@@H](CC(N)=O)C(=O)N[C@@H](CO)C(=O)N[C@@H](Cc2ccccc2)C(=O)N[C@@H](CCCNC(=N)N)C(=O)N[C@@H](Cc2ccc(O)cc2)C(=O)O)NC(=O)CNC(=O)[C@H](CC(C)C)NC(=O)CNC(=O)[C@H](CO)NC(=O)[C@H](CCC(N)=O)NC(=O)[C@H](C)NC(=O)CNC1=O` [Compound 2-40, SG(Glc)-Gly-A-hANP(1-28)] returned a half-maximal effective concentration (EC50) on human GC-A of 0.05 nM.

In the case of “SG2-(SG2-)Lys-[SG2-(SG2-)-Lys-]Lys-PEG(3)-hANP(1-28) [Compound 2-20]”, the EC50 on human GC-A (setting [2]) was determined as 64 nM. At human GC-A, the Emax was found to be 0.59.

On to “[(SG2-)Cys-Gly]5-hANP(1-28) [Compound 2-18]”, for which the EC50 on human GC-A (setting [2]) turned out to be 48 nM. The compound further had an Emax at human GC-A of 0.63.

In the case of “[(SG-)Cys-Gly]5-hANP(1-28) [Compound 2-17]”, the EC50 at human GC-A (setting [2]) stood at 35 nM. At human GC-A, this compound displayed an Emax of 0.70.
